The source of these data is US20110009381A1, “SOLUBILIZED THIAZOLOPYRIDINES” (Sirtis Pharmaceuticals, Inc., priority 2007, published 2011).

This assay deals with T1, SIRT1 (Homo sapiens, UniProt Q96EB6).
T1 sequence (Q96EB6 1-747): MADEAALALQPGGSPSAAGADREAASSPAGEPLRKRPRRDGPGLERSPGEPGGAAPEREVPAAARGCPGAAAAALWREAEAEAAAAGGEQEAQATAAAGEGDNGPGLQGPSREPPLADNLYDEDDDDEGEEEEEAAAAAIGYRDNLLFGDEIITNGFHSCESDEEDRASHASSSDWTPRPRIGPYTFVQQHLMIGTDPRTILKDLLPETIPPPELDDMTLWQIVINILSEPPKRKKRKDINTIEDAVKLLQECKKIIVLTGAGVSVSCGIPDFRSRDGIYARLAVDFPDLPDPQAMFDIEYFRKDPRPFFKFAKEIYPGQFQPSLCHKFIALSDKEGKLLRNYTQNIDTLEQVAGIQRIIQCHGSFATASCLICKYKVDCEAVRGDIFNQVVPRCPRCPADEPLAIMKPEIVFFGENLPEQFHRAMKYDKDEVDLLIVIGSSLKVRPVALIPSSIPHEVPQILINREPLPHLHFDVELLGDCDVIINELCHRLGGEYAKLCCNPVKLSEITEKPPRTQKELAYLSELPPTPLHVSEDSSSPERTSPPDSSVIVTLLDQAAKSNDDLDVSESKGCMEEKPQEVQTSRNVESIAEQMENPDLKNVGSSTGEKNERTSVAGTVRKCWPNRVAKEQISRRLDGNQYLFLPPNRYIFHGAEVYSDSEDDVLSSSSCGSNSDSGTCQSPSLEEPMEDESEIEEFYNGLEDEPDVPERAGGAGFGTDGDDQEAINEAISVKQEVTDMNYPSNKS
In words: Mass spectrometry based assay to identify modulators of SIRT1 activity (deacetylation of p53-based acetylated peptide substrate). The class given is biochemical. The settings on record: 10 nM SIRT1, 0.5 μM peptide substrate, 120 μM βNAD+, 25 minutes at 25° C.; for EC1.5: SIRT1 activation. The text has this:
A mass spectrometry based assay was used to identify modulators of SIRT1 activity. The mass spectrometry based assay utilizes a peptide having 20 amino acid residues as follows: Ac-EE-K(biotin)-GQSTSSHSK(Ac)NleSTEG-K(5TMR)-EE-NH2 (SEQ ID NO: 1) wherein K(Ac) is an acetylated lysine residue and Nle is a norleucine. The peptide is labeled with the fluorophore 5TMR (excitation 540 nm/emission 580 nm) at the C-terminus. The sequence of the peptide substrate is based on p53 with several modifications. In addition, the methionine residue naturally present in the sequence was replaced with the norleucine because the methionine may be susceptible to oxidation during synthesis and purification.
The mass spectrometry assay is conducted as follows: 0.5 μM peptide substrate and 120 μM βNAD^+ is incubated with 10 nM SIRT1 for 25 minutes at 25° C. in a reaction buffer (50 mM Tris-acetate pH 8, 137 mM NaCl, 2.7 mM KCl, 1 mM MgCl2, 5 mM DTT, 0.05% BSA). Test compounds may be added to the reaction as described above. The SirT1 gene is cloned into a T7-promoter containing vector and transformed into BL21(DE3). After the 25 minute incubation with SIRT1, 10 μL of 10% formic acid is added to stop the reaction. Reactions are sealed and frozen for later mass spec analysis. Determination of the mass of the substrate peptide allows for precise determination of the degree of acetylation (i.e. starting material) as compared to deacetylated peptide (product).
A control for inhibition of sirtuin activity is conducted by adding 1 μL of 500 mM nicotinamide as a negative control at the start of the reaction (e.g., permits determination of maximum sirtuin inhibition). A control for activation of sirtuin activity is conducted using 10 nM of sirtuin protein, with 1 μL of DMSO in place of compound, to determine the amount of deacetylation of the substrate at a given timepoint within the linear range of the assay. This timepoint is the same as that used for test compounds and, within the linear range, the endpoint represents a change in velocity.
For the above assay, SIRT1 protein was expressed and purified as follows. The SirT1 gene was cloned into a T7-promoter containing vector and transformed into BL21(DE3). The protein was expressed by induction with 1 mM IPTG as an N-terminal His-tag fusion protein at 18° C. overnight and harvested at 30,000×g. Cells were lysed with lysozyme in lysis buffer (50 mM Tris-HCl, 2 mM Tris[2-carboxyethyl]phosphine (TCEP), 10 μM ZnCl2, 200 mM NaCl) and further treated with sonication for 10 min for complete lysis. The protein was purified over a Ni-NTA column (Amersham) and fractions containing pure protein were pooled, concentrated and run over a sizing column (Sephadex S200 26/60 global). The peak containing soluble protein was collected and run on an Ion-exchange column (MonoQ). Gradient elution (200 mM-500 mM NaCl) yielded pure protein. This protein was concentrated and dialyzed against dialysis buffer (20 mM Tris-HCl, 2 mM TCEP) overnight. The protein was aliquoted and frozen at −80° C. until further use.
Sirtuin modulating compounds that activated SIRT1 were identified using the assay described above and are shown below in Table 1. The EC1-5 values for the activating compounds are represented by A′ (EC1.5<250 nM), A (EC1.5≧250 nM and ≦1 uM), B (EC1.5>1 and ≦10 uM), or C (EC1.5>10 uM). The percent maximum fold activation is represented by A (Fold activation≧300%), B (Fold Activation≧150% and <300%), or C (Fold Activation<150%).

Consider `O=C(Nc1ccccc1-c1nc2cccnc2s1)c1cc(NCc2ccccn2)nc(-c2ccccc2)n1` [Compound 55], for which the “FOLD ACT. (percent maximum fold activation)” value is “B (Fold Activation≧150% and <300%)”; the EC1.5 entry was “A (EC1.5≧250 nM and ≦1 uM)”.

For `O=C(Nc1ccccc1-c1nc2ccncc2s1)c1cc(NCCN2CCCC2)nc(-c2ccccc2)n1` [Compound 56], the “FOLD ACT. (percent maximum fold activation)” value is listed as “A (Fold activation≧300%)” and the EC1.5 entry is reported as “A′ (EC1.5<250 nM)”.

`O=C(Nc1ccccc1-c1nc2ccncc2s1)c1cc(NCc2ccccn2)nc(-c2ccccc2)n1` [Compound 57]: the “FOLD ACT. (percent maximum fold activation)” value is recorded as “A (Fold activation≧300%)”; the EC1.5 result was “A (EC1.5≧250 nM and ≦1 uM)”.

Take `O=C(Nc1ccccc1-c1nc2cccnc2s1)c1cc(NCc2cccnc2)nc(-c2ccccc2)n1` [Compound 58]: the “FOLD ACT. (percent maximum fold activation)” value is on record as “A (Fold activation≧300%)”; the EC1.5 result was “A (EC1.5≧250 nM and ≦1 uM)”.

Turning to `O=C(Nc1ccccc1-c1nc2cccnc2s1)c1cc(NCc2ccncc2)nc(-c2ccccc2)n1` [Compound 59], the “FOLD ACT. (percent maximum fold activation)” value is on record as “A (Fold activation≧300%)”; the EC1.5 result is “A (EC1.5≧250 nM and ≦1 uM)”.

In the case of `O=C(Nc1ccccc1-c1nc2cccnc2s1)c1cc(NCCNc2ccccc2)nc(-c2ccccc2)n1` [Compound 60], the “FOLD ACT. (percent maximum fold activation)” value was “C (Fold Activation<150%)” and the EC1.5 result is “C (EC1.5>10 uM)”.

With `Cl.O=C(Nc1ccccc1-c1nc2cccnc2s1)c1cc(NCCN2CCOCC2)nc(-c2ccccc2)n1` [Compound 61], the “FOLD ACT. (percent maximum fold activation)” value was “A (Fold activation≧300%)” and the EC1.5 result is listed as “A′ (EC1.5<250 nM)”.

Regarding `Cl.O=C(Nc1ccccc1-c1nc2cccnc2s1)c1cc(NCCN2CCCC2)nc(-c2ccccc2)n1` [Compound 62], the “FOLD ACT. (percent maximum fold activation)” value is recorded as “A (Fold activation≧300%)” and the EC1.5 result is reported as “A′ (EC1.5<250 nM)”.

In the case of `O=C(Nc1ccccc1-c1nc2cccnc2s1)c1cc(NC2CCCCC2)nc(-c2ccccc2)n1` [Compound 63], the “FOLD ACT. (percent maximum fold activation)” value was “C (Fold Activation<150%)” and the EC1.5 entry is “C (EC1.5>10 uM)”.

Take `CNc1cc(C(=O)Nc2ccccc2-c2nc3cccnc3s2)nc(-c2ccccc2)n1` [Compound 64]: the “FOLD ACT. (percent maximum fold activation)” value was “C (Fold Activation<150%)” and the EC1.5 result is “C (EC1.5>10 uM)”.

Turning to `CC(C)N1CCN(c2cc(C(=O)Nc3ccccc3-c3nc4cccnc4s3)nc(-c3ccccc3)n2)CC1.Cl` [Compound 65], the “FOLD ACT. (percent maximum fold activation)” value is “B (Fold Activation≧150% and <300%)”; the EC1.5 entry is “A′ (EC1.5<250 nM)”.

Take `Cl.O=C(Nc1ccccc1-c1nc2cccnc2s1)c1cc(NCCN2CCCCC2)nc(-c2ccccc2)n1` [Compound 67]: the “FOLD ACT. (percent maximum fold activation)” value is “A (Fold activation≧300%)” and the EC1.5 entry is on record as “A′ (EC1.5<250 nM)”.

As for `COCCN(CCOC)c1cc(C(=O)Nc2ccccc2-c2nc3cccnc3s2)nc(-c2ccccc2)n1` [Compound 68], the “FOLD ACT. (percent maximum fold activation)” value is listed as “A (Fold activation≧300%)” and the EC1.5 result is recorded as “A′ (EC1.5<250 nM)”.

For the molecule `O=C(Nc1ccccc1-c1nc2cccnc2s1)c1cc(NC(CO)CO)nc(-c2ccccc2)n1` [Compound 69], the “FOLD ACT. (percent maximum fold activation)” value is given as “A (Fold activation≧300%)” and the EC1.5 entry is “A′ (EC1.5<250 nM)”.

In the case of `C[C@@H]1CN(c2cc(C(=O)Nc3ccccc3-c3nc4cccnc4s3)nc(-c3ccccc3)n2)C[C@H](C)O1` [Compound 70], the “FOLD ACT. (percent maximum fold activation)” value was “B (Fold Activation≧150% and <300%)”; the EC1.5 entry is “A (EC1.5≧250 nM and ≦1 uM)”.

Take `O=C(Nc1ccccc1-c1nc2cccnc2s1)c1cc(N2C[C@H]3C[C@@H]2CN3)nc(-c2ccccc2)n1` [Compound 71]: the “FOLD ACT. (percent maximum fold activation)” value is recorded as “A (Fold activation≧300%)” and the EC1.5 result was “A′ (EC1.5<250 nM)”.

Consider `O=C(Nc1ccccc1-c1nc2cccnc2s1)c1cc(NC2CCCNC2)nc(-c2ccccc2)n1` (stereo not drawn) [Compound 72], for which the “FOLD ACT. (percent maximum fold activation)” value is on record as “A (Fold activation≧300%)” and the EC1.5 entry is reported as “A′ (EC1.5<250 nM)”.

For the molecule `CCSCCNc1cc(C(=O)Nc2ccccc2-c2nc3cccnc3s2)nc(-c2ccccc2)n1` [Compound 73], the “FOLD ACT. (percent maximum fold activation)” value was “B (Fold Activation≧150% and <300%)”; the EC1.5 result was “B (EC1.5>1 and ≦10 uM)”.

Turning to `CCS(=O)(=O)CCNc1cc(C(=O)Nc2ccccc2-c2nc3cccnc3s2)nc(-c2ccccc2)n1` [Compound 74], the “FOLD ACT. (percent maximum fold activation)” value is recorded as “A (Fold activation≧300%)” and the EC1.5 result is “A′ (EC1.5<250 nM)”.

For the molecule `C[C@H](Nc1cc(C(=O)Nc2ccccc2-c2nc3cccnc3s2)nc(-c2ccccc2)n1)C(=O)O` [Compound 75], the “FOLD ACT. (percent maximum fold activation)” value is on record as “A (Fold activation≧300%)”; the EC1.5 entry is “A (EC1.5≧250 nM and ≦1 uM)”.

On to `NCCCOc1cc(C(=O)Nc2ccccc2-c2nc3cccnc3s2)nc(-c2ccccc2)n1` [Compound 76], for which the “FOLD ACT. (percent maximum fold activation)” value is on record as “A (Fold activation≧300%)” and the EC1.5 entry is “A′ (EC1.5<250 nM)”.

For the molecule `O=C(Nc1ccccc1-c1nc2cccnc2s1)c1ccc(CN2CCOCC2)c(-c2ccccc2)n1` [Compound 77], the “FOLD ACT. (percent maximum fold activation)” value was “B (Fold Activation≧150% and <300%)”; the EC1.5 entry was “A (EC1.5≧250 nM and ≦1 uM)”.

`Cc1ccn(CCNc2cc(C(=O)Nc3ccccc3-c3nc4cccnc4s3)nc(-c3ccccc3)n2)n1` [Compound 78]: the “FOLD ACT. (percent maximum fold activation)” value is listed as “A (Fold activation≧300%)” and the EC1.5 result is recorded as “A′ (EC1.5<250 nM)”.

For `O=C(Nc1ccccc1-c1nc2cccnc2s1)c1cc(C#CCO)nc(-c2ccccc2)n1` [Compound 79], the “FOLD ACT. (percent maximum fold activation)” value was “C (Fold Activation<150%)” and the EC1.5 result was “C (EC1.5>10 uM)”.

Consider `O=C(Nc1ccccc1-c1nc2cccnc2s1)c1cc(OCCO)nc(-c2ccccc2)n1` [Compound 80], for which the “FOLD ACT. (percent maximum fold activation)” value is on record as “C (Fold Activation<150%)” and the EC1.5 entry was “C (EC1.5>10 uM)”.

As for `CCN(CC)CCCNc1cc(C(=O)Nc2ccccc2-c2nc3cccnc3s2)nc(-c2ccccc2)n1` [Compound 81], the “FOLD ACT. (percent maximum fold activation)” value is recorded as “A (Fold activation≧300%)” and the EC1.5 entry is reported as “A′ (EC1.5<250 nM)”.

Consider `O=C(Nc1ccccc1-c1nc2cccnc2s1)c1cc(NCC2CCNCC2)nc(-c2ccccc2)n1` [Compound 82], for which the “FOLD ACT. (percent maximum fold activation)” value is reported as “A (Fold activation≧300%)” and the EC1.5 entry was “A′ (EC1.5<250 nM)”.
